Results published in patent US10336792B2, “Antimicrobial peptide dendrimers” (priority 2014, dated 2019).

Columns and labels:
[1] = system: Pseudomonas aeruginosa (strain PA01); experiment: microbe, parasite or virus in culture; assay type: cell-based; settings: LB medium, serial 2/3 dilution, 37 °C, 18-24 h
Method in brief: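 P. aeruginosa PAO1 grown overnight in LB, diluted to OD600 0.001 and mixed with ⅔-step peptide dilutions, then incubated at 37 °C for 18–24 h. After MTT staining, the lowest concentration with no visible growth was read by eye as the MIC.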

[2] = system: P. aeruginosa PA01 (WT); assay type: cell-based, Pseudomonas aeruginosa
Method: (§1) Antimicrobial activity was assayed against P. aeruginosa PA01 (WT), P. aeruginosa PT1482 (A-), PT1485 (A-B-), PT1149 (A-B-C-algC), PT331 (Z61) (LPS mutants), P. aeruginosa PEJ2.6, PEJ9.1, ZEM1.A, ZEM9.A (clinical isolates from Université de Genève/Centre Médical Universitaire), Burkholderia cenocepacia (B. ceno), Staphylococcus aureus (S. aureus, MRSA strain) and Acinetobacter baumannii (A. baum) (clinical isolates from Université de Genève/Centre Médical Universitaire). To determine the minimal inhibitory concentration (MIC), microdilution broth method was used. A colony of bacteria was grown in MH-medium overnight at 37° C. The samples were prepared as stock solutions of 8 mg mL^−1 in H2O, diluted to the beginning concentration of 32, 64, 128 or 256 μg/mL in 300 μL MH-medium, added to the first well of 96-well microtiterplate (TPP, untreated) and diluted serially by ½. The concentration of the bacteria was quantified by measuring absorbance at 600 nm and diluted to OD600=0.022 in MH-medium. The sample solutions (150 μL) were mixed with 4 μL diluted bacterial suspension with a final inoculation of about of 5×10^5 CFU. The plates were incubated at 37° C. until satisfactory growth (˜18 h). For each test, two columns of the plate were kept for sterility control (SC, broth only) and growth control (GC, broth with bacterial inoculums, no antibiotics). The minimal inhibitory concentration (MIC) was defined as the lowest concentration of the antimicrobial substance (peptide dendrimer) that inhibited visible growth of the tested bacteria with the unaided eye. For microbiological study Polymyxin was used as references.

[3] = system: P. aeruginosa PT1482 (A-), PT1485 (A-B-), PT1149 (A-B-C-algC), PT331 (Z61) (LPS mutants); assay type: cell-based, Pseudomonas aeruginosa; settings: MH medium, 12-18 h
Method: as §1

[4] = system: PAO1; assay type: cell-based, Pseudomonas aeruginosa; settings: PAO1, MH medium + 30% human serum
Method: as §1

[5] = system: Pseudomonas aeruginosa (strain PA01); assay type: cell-based; settings: 25 μg/mL; 0, 1, 3, 6, 8, 24 h
Method: Cell viability was assayed against Pseudomonas aeruginosa (strain PA01). A colony of bacteria was grown in LB-medium overnight at 37° C. The concentration was quantified by measuring absorbance at 600 nm and diluted to OD600=0.1 (1×10^8 CFU/mL). The samples were prepared as stock solutions of 1 mg mL^−1 in H2O and diluted in LB to a concentration of 50 μg/mL in a 96-well microtiterplate (TPP, untreated). The sample solutions (50 μL) were mixed with the diluted bacterial suspension with an OD600 nm of 0.001 (50 μL). […] The plates were incubated at 37° C. for 1, 3, 6, 8 and 24 h. Each time point was assayed on a separate plate. For each test, two columns of the plate were kept for sterility control (SC, broth only) and growth control (GC, broth with bacterial inoculums, no antibiotics). After incubation 15 μL of WST-8 working solution (3.31 mg/mL WST-8 (Ochem Incorporation), 0.074 mg/mL PES (phenazine ethosulfate)) was added to each well and cells were incubated at 37° C. until GC had desired value. After the reaction took place, the final absorbance was read at 450 nm. For calculations, the value of the GC was set to 100% cell viability and the value of the negative control (no bacteria, SC) was set to 0% cell viability. […]
In order to determine the killing kinetics of AMPDs the amount of living bacteria was measured as a function of time after incubation with the AMPDs. […]

Polymyxin B [reference compound]
MIC P. aeruginosa PAO1 [1]: 2 µg/mL
MIC PAO1 ([2]; MH medium, 12-18 h, two independent experiments in triplicate (Table 25)): 1 µg/mL
MIC (MH) ([2]; PAO1, MH medium (Table 24)): 2 µg/mL
MIC PT1482 (A-) [3]: 1 µg/mL
MIC PT1485 (AB-) [3]: <1 µg/mL
MIC (MH + 30% human serum) [4]: 4 µg/mL
killing kinetics (bacterial survival over 24 hours) [5]: kill P. aeruginosa immediately
